From ChEMBL document CHEMBL1667775, “Design, synthesis and biological evaluation of new thalidomide analogues as TNF-α and IL-6 production inhibitors” (Bioorg Med Chem Lett, 2011) come the findings set out here.

In data set [1] the test system is PBMC. Briefly: Cytotoxicity against human PBMC at 1 to 100 uM after 48 hrs by propidium iodure labeling. The data set is classed as cell-based.
Data set [2] deals with PBMC. Briefly: Antiinflammatory activity in human PBMC assessed as inhibition of LPS-induced IL-6 production at 1 to 100 uM after 48 hrs by ELISA. The data set is classed as functional, cell-based. (In general: In an ELISA, binding on a coated surface is turned into a signal by an enzyme label.)
Data set [3] deals with PBMC. Briefly: Antiinflammatory activity in human PBMC assessed as inhibition of LPS-induced TNFalpha production at 1 to 100 uM after 48 hrs by ELISA. The data set is classed as functional, cell-based.
The subject of data set [4] is PBMC. Kind of data set: Cytotoxicity against human PBMC at 1 to 100 uM after 48 hrs by flow cytometry. It counts as cell-based. In general terms: Flow cytometry measures light scatter and fluorescence of single cells or particles in a stream.
Data set [5] relates to PBMC. Kind of data set: Antiinflammatory activity in human PBMC assessed as inhibition of LPS-induced TNFalpha production at 100 uM after 48 hrs by ELISA. It counts as functional, cell-based.
The test system of data set [6] is PBMC. Briefly: Antiinflammatory activity in human PBMC assessed as inhibition of LPS-induced IL-6 production at 1 to 10 uM after 48 hrs by ELISA. The data set is classed as functional, cell-based.
The test system of data set [7] is PBMC. Briefly: Antiinflammatory activity in human PBMC assessed as inhibition of LPS-induced TNFalpha production at 1 to 10 uM after 48 hrs by ELISA. It counts as functional, cell-based.
Data set [8] has as its system PBMC. Kind of data set: Antiinflammatory activity in human PBMC assessed as inhibition of LPS-induced IL-6 production at 100 uM after 48 hrs by ELISA. It counts as functional, cell-based.
Data set [9] has as its system PBMC. Kind of data set: Antiinflammatory activity in human PBMC assessed as inhibition of LPS-induced TNFalpha production after 48 hrs by ELISA. It counts as functional, cell-based.

Activity calls are given as the source filed them. No cut-off for these calls is given here.

On to `O=C(Nc1cccc(S(=O)(=O)N2CCOCC2)c1)c1cc2cccnc2[nH]1`, for which the Activity entry in data set [1] and in [4] was “Non-toxic” throughout. Besides, the result in data set [2] and in data set [3] was inactive.
`CCOC(=O)c1ccc(S(=O)(=O)CN2C(=O)C3Cc4ccccc4CN3S2(=O)=O)cc1` (centres undefined): the Activity result in data set [1] and in [4] was “Non-toxic” throughout. Moreover, the outcome in data set [5] and in [8] was Active. The outcome in [6] and in [7] was inactive.
Consider `O=C(Nc1ccccc1)c1cc2cccnc2n1S(=O)(=O)c1ccccc1`, for which the results for the Activity entry in data set [1], in data set [9] and in data set [4] were “Non-toxic”, “Dose-dependent effect” and “Non-toxic”, respectively. In [2], the outcome was Active.
With `O=C1C2Cc3ccccc3N2C(=O)N1S(=O)(=O)c1ccc2ccccc2c1` (centres undefined), the Activity result in data set [1] and in data set [4] was “Non-toxic” in each case.
As to `O=C(Nc1cccc(S(=O)(=O)N2CCSCC2)c1)c1cc2cccnc2[nH]1`, the Activity entry in data set [1] and in [4] was “Non-toxic” throughout. Also, the result in data set [2] and in data set [3] was inactive.
For `O=C1c2cc3cccnc3n2C(=O)N1S(=O)(=O)c1ccccc1`, the Activity result in [1] and in data set [4] was “Non-toxic” throughout. Further, the result in data set [2] was inactive. Besides, the result in [3] was Active.
In the case of `O=C(Nc1cccc(S(=O)(=O)N2CCN(c3ccccc3)CC2)c1)c1cc2cccnc2[nH]1`, the Activity entry in data set [1] and in [4] was “Non-toxic” in each case. The result in [2] and in [3] was inactive.
As for `O=C(Nc1ccccc1)c1cc2cccnc2[nH]1`, the Activity entry in [1] and in data set [4] was “Non-toxic” throughout. Moreover, the result in data set [2] and in [3] was inactive.
Consider `Cc1ccc(S(=O)(=O)N2C(=O)c3cc4ccccc4n3C2=O)cc1`, for which the Activity entry in data set [1] and in data set [4] was “Non-toxic” in each case.
